For test [1], the system named is BAX/Bcl-2 ratio. Kind of test: Western blot, BAX/Bcl-2 ratio. The format is cell-based, human. The following applies: HCT-116, 2.44 μM, 48 h; control = 1.00. As to the method:
In comparison to the control, compound 16 elevated the level of the proapoptotic protein (BAX) by 2.18 times. […] Furthermore, compound 16 enhanced the BAX/Bcl-2 ratio by 4.38-fold in comparison to control cells.
The effects of compound 16 on the expression of BAX, and Bcl‐2 were determined using Western blot analysis [62–64]as described in Electronic Supplementary Material S2.7 in S1 Appendix. […]
for 48 h. Then, the cells were fixed in 70% ethanol at 4 °C for 12 h. After that, the cells were washed with cold PBS, incubated with 100 μl RNase A at 37 °C for 30 min, and stained with 400 μl PI in the dark at room temperature for further 30 min. The stained cells were measured using Epics XL-MCL™ Flow Cytometer (Beckman Coulter), and the data were analyzed using Flowing software (version 2.5.1, Turku Centre for Biotechnology, Turku, Finland).
S2.6. Flow cytometry analysis for apoptosis
Flow cytometry cell apoptosis analysis was used to investigate the apoptotic effect of the synthesized compounds. […] The stained cells were measured using Epics XL-MCL™ Flow Cytometer and analyzed using Flowing software. […]
The proteins expression of BAX, and Bcl‐2 were determined using Western blot analysis. […] Total protein concentrations in the supernatant were determined colorimetrically using the Pierce 660 nm Protein Assay method (Thermo Fisher Scientific, Rockford, IL), with BSA as the standard. […]

Test [2] concerns HCT-116 cell line. Kind of test: MTT anti-proliferative assay, HCT-116. Particulars: Homo sapiens, 48 h, three independent experiments, read-out: In vitro cytotoxicity IC50, HCT-116. The format is cell-based. On the procedure: In vitro antiproliferative activities of the target molecules were assessed against two human cancer cell lines namely, hepatocellular carcinoma (HepG2) and colorectal carcinoma (HCT-116) using MTT assay.
The anti-proliferative activity of the synthesized compounds was assessed using MTT assay protocol. A panel of human cancer cell lines namely, colorectal carcinoma (HCT-116) and hepatocellular carcinoma (HepG2) was used in this test. Doxorubicin was used as a positive control. The cell lines were got from ATCC (American Type Culture Collection) via the Holding company for biological products and vaccines (VACSERA, Cairo, Egypt). The anti-proliferative activities of the tested compounds were determined quantitatively as follows:
At first, the cells were cultured into a medium of RPMI-1640 with 10% fetal bovine serum. Then, two different antibiotics were added at 37°C in a 5% CO2 incubator: penicillin (100 units/mL) and streptomycin (100 μg/mL). Next, we seeded the cells in a 96-well plate by a density of 1.0 x 10^4 cells / well at 37°C for 48 h under 5% CO2. The synthesized compounds with different concentrations were applied into the cell lines and incubated for 48 h. After 48 h, 20 μl of MTT solution (5mg/mL) was added and incubated for 4 h. Then, DMSO (100 μl) was added into each well to dissolve the formed purple formazan. After that, a colorimetric assay was measured and recorded at absorbance of 570 nm using a plate reader (EXL 800, USA). The relative cell viability in percentage was calculated as (A570 of treated samples/A570 of untreated sample) X 100.
S2: Biological evaluation
S2.1. In vitro cytotoxic activity
The anti-proliferative activity of the synthesized compounds was assessed using MTT assay protocol. A panel of human cancer cell lines namely, colorectal carcinoma (HCT-116) and hepatocellular carcinoma (HepG2) was used in this test. As we targeted the DNA and Topo […]
cell lines were got from ATCC (American Type Culture Collection) via the Holding company for biological products and vaccines (VACSERA, Cairo, Egypt). The anti -proliferative activities of the tested compounds were determined quantitatively as follows:
At first, the cells were cultured into a medium of RPMI-1640 with 10% fetal bovine serum.
Then, two different antibiotics were added at 37 ᵒC in a 5% CO2 incubator: penicillin (100 units/mL) and streptomycin (100 µg/mL). Next, we seeded the cells in a 96 -well plate by a density of 1.0 x 10^4 cells / well at 37 ᵒC for 48 h under 5% CO2. The synthesized compounds with different concentrations were applied into the cell lines and incubated for 48 h. After 48 h, 20 µl of MTT solution (5mg/mL) was added and incubated for 4 h. Then, DMSO (100 µl) was added into each well to dissolve the formed purple formazan. After that, a colorimetric assay was measured and recorded at absorbance of 570 nm using a plate reader (EXL 800, USA). The relative cell viability in percentage was calculated as (A570 of treated samples/A570 of untreated sample) X 100. […]

The structures appear in SMILES notation.

For `CCCNc1nc2ccccc2c2nnc(C(F)(F)F)n12` [Compound 16, N-Propyl-3-(trifluoromethyl)-[1,2,4]triazolo[4,3-c]quinazolin-5-amine], the “Protein expression (normalized to β-actin) BAX/Bcl-2 ratio” value in test [1] is 4.38 ± 0.86. Also, in test [2], the IC50 was 2.44 ± 0.1 µM.

Values taken from paper PMC9886266, “New [1,2,4]triazolo[4,3-c]quinazolines as intercalative Topo II inhibitors: Design, synthesis, biological evaluation, and in silico studies” (PLOS ONE, 2023).
